Values joined by “and” are separate entries in the source; they are usually repeats but may differ in a detail not shown here. Equal values may be shown once. Read-outs that look alike come from different tables or passages of the source.
Key:
[1] = cited from earlier work
[2] = cited from earlier work; remark: listed apart in the source
[3] = Dissolution in near neutral solution at pH 6.5; assay type: physicochemical; details: for Time until capsule opens: pH 6.5, 150 mls, 37° C., stirred
Procedure: Dissolution experiments were carried out on NaHAs2O4 at 2 different pH levels. Firstly, simulated gastric fluid (pH 1.24) was used, then a near neutral solution at pH 6.5. Prior to addition of the capsules, 150 mls of the dissolution solution was heated to 37° C. and the solution contained a spin bar at a speed of 2. The appropriate capsule was then added.

[4] = assay type: physicochemical
[5] = gelatin capsule in 150 mL simulated gastric solution, approx. pH 1.2, 37° C.

Row | Substance | Time required for complete dissolution ([1]; 0.1 M NaOH) [min] | Dissolution (in words) ([1]; in vitro, strong stirring, low pH) | Solubility (in words) ([2]; neutral pH) | Solubility in water (in words) ([2]; physiological or acidic pH) | Time until capsule opens ([3]; 1 mg capsule) | Time until capsule opens ([3]; 10 mg capsule) | Time until powder was completely dissolved ([3]; near neutral solution pH 6.5, 37° C.) | Time to dissolve ([3]; pH 7) | Time until capsule opens ([4]; 10 mg capsule, pH 1.24, 150 mls, 37° C., stirred) | Time to complete dissolution in gastric juices [4] | Time to complete dissolution in gastric juices ([4]; 'even less than') | Time until capsule shell had dissolved [4, 5] | Time until contents had completely dissolved [4, 5] [min] | Time to dissolve ([4]; pH about 1) | Time until powder was completely dissolved ([4]; simulated gastric fluid pH 1.24, 37° C.) | Dissolution in stomach acid (in words) ([4]; stomach acid)
1 | arsenic trioxide | 15 to 20 | very slow process | only slightly soluble | only sparingly soluble | – | – | – | – | – | – | – | – | – | – | – | –
2 | sodium diarsenic tetraoxide [NaHAs2O4] | – | – | – | – | 50 s and 45 s | 55 s and 50 s | less than two minutes | well under a minute | 35 s and 40 s | less than 1 min | less than 30 seconds | less than or about one minute | ≤ 2 | less than 10 seconds | less than two minutes | very rapidly dissolved in stomach acid without any precipitation

Source: patent US11241453B2, “Arsenic compositions” (Eupharma Pty Ltd, priority 2016, dated 2022)
